Test results as given in patent publication US6274715A, “Tricyclic erythromycin derivatives” (priority 1997, dated 2001).
In brackets after ≈: the same amount, converted by molar mass.

Columns and labels:
Format in all cases: cell-based
[1] = tested on: PSEUDOMONAS AERUGINOSA DPHD-2862; test: In vitro antibacterial activity, MIC, BHI agar dilution; settings: P. aeruginosa DPHD-2862, unit assumed
[2] = tested on: PSEUDOMONAS AERUGINOSA K799/61; test: as above; settings: P. aeruginosa K799/61, unit assumed
[3] = tested on: STAPHYLOCOCCUS EPIDERMIDIS 3519; settings: S. epidermidis 3519; BHI agar; unit assumed
ESCHERICHIA COLI JUHL = settings: E. coli JUHL; BHI agar; unit assumed
ESCHERICHIA COLI H560 = test: In vitro antibacterial activity, MIC, BHI agar dilution; settings: E. coli H560, unit assumed
[4] = tested on: STREPTOCOCCUS PYOGENES PIU 2548; test: as above; settings: S. pyogenes PIU 2548, unit assumed
PSEUDOMONAS CEPACIA 296I = test: as above; settings: P. cepacia 296I, unit assumed
[5] = tested on: PSEUDOMONAS AERUGINOSA DPHD-5263; test: as above; settings: P. aeruginosa DPHD-5263, unit assumed
[6] = tested on: STAPHYLOCOCCUS AUREUS 1775; test: as above; settings: S. aureus 1775, unit assumed
[7] = tested on: ENTEROBACTER AEROGENES ATCC 13048; test: as above; settings: E. aerogenes ATCC 13048, unit assumed
ESCHERICHIA COLI DC-2 = test: as above; settings: E. coli DC-2, unit assumed
ESCHERICHIA COLI KNK 437 = settings: E. coli KNK 437; BHI agar; unit assumed
[8] = tested on: STAPHYLOCOCCUS AUREUS NCTC10649M; test: In vitro antibacterial activity, MIC, BHI agar dilution; settings: S. aureus NCTC10649M, unit assumed
[9] = tested on: KLEBSIELLA PNEUMONIAE ATCC 8045; test: as above; settings: K. pneumoniae ATCC 8045, unit assumed
[10] = tested on: STAPHYLOCOCCUS AUREUS ATCC 6538P; test: as above; settings: S. aureus ATCC 6538P, 35-37° C., 20 to 24 hours, unit assumed
[11] = tested on: STAPHYLOCOCCUS AUREUS A-5278; test: as above; settings: S. aureus A-5278, unit assumed
[12] = tested on: PSEUDOMONAS AERUGINOSA 5007; test: as above; settings: P. aeruginosa 5007, unit assumed
[13] = tested on: STAPHYLOCOCCUS AUREUS A5177; test: as above; settings: S. aureus A5177, unit assumed
[14] = tested on: STREPTOCOCCUS PYOGENES 930; test: as above; settings: S. pyogenes 930, unit assumed
[15] = tested on: STAPHYLOCOCCUS AUREUS CMX 642A; test: as above; settings: S. aureus CMX 642A, unit assumed
ESCHERICHIA COLI SS = test: as above; settings: E. coli SS, unit assumed
[16] = tested on: STAPHYLOCOCCUS AUREUS CMX 553; test: as above; settings: S. aureus CMX 553, unit assumed
[17] = tested on: STREPTOCOCCUS PYOGENES EES61; test: as above; settings: S. pyogenes EES61, unit assumed
[18] = tested on: PSEUDOMONAS AERUGINOSA K799/WT; test: as above; settings: P. aeruginosa K799/WT, unit assumed
[19] = tested on: MYCOBACTERIUM SMEGMATIS ATCC 114; test: as above; settings: M. smegmatis ATCC 114, unit assumed
[20] = tested on: PSEUDOMONAS AERUGINOSA BMH10; test: as above; settings: P. aeruginosa BMH10, unit assumed
M[…] ATCC 4698 = test: as above; settings: M. luteus ATCC 4698, unit assumed
How it was run: (§1)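 BHI agar dilution, 12 plates; inoculum 1:100 (1:10 slow-growing strains), Steers replicator; 35-37° C, 20-24 h. MIC = lowest conc. with no growth/slight haze/sparse colonies vs growth control, visual read. Erythromycin A reference plate.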

STR[…] 508 = test: as above; settings: S. agalactiae CMX 508, unit assumed
How it was run: as §1

M[…] ATCC 9341 = test: as above; settings: M. luteus ATCC 9341, unit assumed
How it was run: as §1

EN[…] ATCC 8043 = test: as above; settings: E. faecium ATCC 8043, unit assumed
How it was run: as §1

[21] = tested on: STREPTOCOCCUS BOVIS A-5169; test: as above; settings: S. bovis A-5169, unit assumed
CANDIDA ALBICANS CCH 442 = test: as above; settings: C. albicans CCH 442, unit assumed
[22] = tested on: PROVIDENCIA STUARTII CMX 640; settings: P. stuartii CMX 640; BHI agar; unit assumed

Structure (SMILES)	MIC [1] [µg/mL]	MIC [2] [µg/mL]	MIC [3] [µg/mL]	MIC (ESCHERICHIA COLI JUHL) [µg/mL]	MIC (ESCHERICHIA COLI H560) [µg/mL]	MIC [4] [µg/mL]	MIC (PSEUDOMONAS CEPACIA 296I) [µg/mL]	MIC [5] [µg/mL]	MIC [6] [µg/mL]	MIC [7] [µg/mL]	MIC (ESCHERICHIA COLI DC-2) [µg/mL]	MIC (ESCHERICHIA COLI KNK 437) [µg/mL]	MIC [8] [µg/mL]	MIC [9] [µg/mL]	MIC [10] [µg/mL]	MIC [11] [µg/mL]	MIC [12] [µg/mL]	MIC [13] [µg/mL]	MIC [14] [µg/mL]	MIC [15] [µg/mL]	other results
CC[C@H]1OC(=O)[C@H](C)C(=O)[C@H](C)[C@@H](O[C@@H]2O[C@H](C)C[C@H](N(C)C)[C@H]2O)[C@](C)(OC)C[C@@H](C)C2=N[C@@H]3CN(CCc4ccccc4)C[C@@H]3N3C(=O)O[C@@]1(C)[C@H]3[C@H]2C [Example 23]	> 100	0.2 (≈ 0.255 µM)	0.78 (≈ 0.996 µM)	50 (≈ 63.9 µM)	6.2 (≈ 7.92 µM)	0.78 (≈ 0.996 µM)	100 (≈ 128 µM)	> 100	> 100	100 (≈ 128 µM)	12.5 (≈ 16 µM)	25 (≈ 31.9 µM)	0.2 (≈ 0.255 µM)	100 (≈ 128 µM)	0.2 (≈ 0.255 µM)	> 100	> 100	0.2 (≈ 0.255 µM)	> 100	0.2 (≈ 0.255 µM)	MIC (ESCHERICHIA COLI SS): 0.05 µg/mL (≈ 0.0639 µM); MIC [16]: 0.2 µg/mL (≈ 0.255 µM); MIC [17]: ≤ 0.005 µg/mL; MIC [18]: 100 µg/mL (≈ 128 µM); MIC [19]: 0.39 µg/mL (≈ 0.498 µM); MIC [20]: > 100 µg/mL; MIC (M[…] ATCC 4698): 0.2 µg/mL (≈ 0.255 µM); MIC (STR[…] 508): ≤ 0.005 µg/mL; MIC (M[…] ATCC 9341): 0.05 µg/mL (≈ 0.0639 µM); MIC (EN[…] ATCC 8043): 0.05 µg/mL (≈ 0.0639 µM); MIC [21]: ≤ 0.005 µg/mL; MIC (CANDIDA ALBICANS CCH 442): > 100 µg/mL; MIC [22]: > 100 µg/mL
CC[C@H]1OC(=O)[C@H](C)C(=O)[C@H](C)[C@@H](O[C@@H]2O[C@H](C)C[C@H](N(C)C)[C@H]2O)[C@](C)(OC)C[C@@H](C)C2=N[C@H](CO)CN3C(=O)O[C@@]1(C)[C@H]3[C@H]2C [Example 52]	> 100	1.56 (≈ 2.34 µM)	0.78 (≈ 1.17 µM)	100 (≈ 150 µM)	50 (≈ 74.9 µM)	1.56 (≈ 2.34 µM)	> 100	> 100	> 100	> 100	100 (≈ 150 µM)	100 (≈ 150 µM)	0.78 (≈ 1.17 µM)	> 100	0.78 (≈ 1.17 µM)	> 100	> 100	0.78 (≈ 1.17 µM)	> 100	0.78 (≈ 1.17 µM)	MIC (ESCHERICHIA COLI SS): 0.39 µg/mL (≈ 0.584 µM); MIC [16]: 0.78 µg/mL (≈ 1.17 µM); MIC [17]: 0.05 µg/mL (≈ 0.0749 µM); MIC [18]: > 100 µg/mL; MIC [19]: 12.5 µg/mL (≈ 18.7 µM); MIC [20]: > 100 µg/mL; MIC (M[…] ATCC 4698): 0.39 µg/mL (≈ 0.584 µM); MIC (STR[…] 508): 0.05 µg/mL (≈ 0.0749 µM); MIC (M[…] ATCC 9341): 0.1 µg/mL (≈ 0.15 µM); MIC (EN[…] ATCC 8043): 0.2 µg/mL (≈ 0.299 µM); MIC [21]: 0.05 µg/mL (≈ 0.0749 µM); MIC (CANDIDA ALBICANS CCH 442): > 100 µg/mL; MIC [22]: > 100 µg/mL
CC[C@H]1OC(=O)[C@H](C)C(=O)[C@H](C)[C@@H](O[C@@H]2O[C@H](C)C[C@H](N(C)C)[C@H]2O)[C@](C)(OC)C[C@@H](C)C2=NC[C@H](CSCc3ccccc3)N3C(=O)O[C@@]1(C)[C@H]3[C@H]2C [Example 66]	> 100	0.39 (≈ 0.504 µM)	0.2 (≈ 0.258 µM)	25 (≈ 32.3 µM)	12.5 (≈ 16.1 µM)	0.39 (≈ 0.504 µM)	100 (≈ 129 µM)	100 (≈ 129 µM)	> 100	> 100	12.5 (≈ 16.1 µM)	25 (≈ 32.3 µM)	0.1 (≈ 0.129 µM)	> 100	0.1 (≈ 0.129 µM)	> 100	> 100	0.1 (≈ 0.129 µM)	> 100	0.2 (≈ 0.258 µM)	MIC (ESCHERICHIA COLI SS): 0.39 µg/mL (≈ 0.504 µM); MIC [16]: 0.2 µg/mL (≈ 0.258 µM); MIC [17]: 0.01 µg/mL (≈ 0.0129 µM); MIC [18]: 100 µg/mL (≈ 129 µM); MIC [19]: 0.39 µg/mL (≈ 0.504 µM); MIC [20]: 100 µg/mL (≈ 129 µM); MIC (M[…] ATCC 4698): 0.2 µg/mL (≈ 0.258 µM); MIC (STR[…] 508): 0.01 µg/mL (≈ 0.0129 µM); MIC (M[…] ATCC 9341): 0.02 µg/mL (≈ 0.0258 µM); MIC (EN[…] ATCC 8043): 0.02 µg/mL (≈ 0.0258 µM); MIC [21]: 0.01 µg/mL (≈ 0.0129 µM); MIC (CANDIDA ALBICANS CCH 442): > 100 µg/mL; MIC [22]: > 100 µg/mL
CC[C@H]1OC(=O)[C@H](C)C(=O)[C@H](C)[C@@H](O[C@@H]2O[C@H](C)C[C@H](N(C)C)[C@H]2O)[C@](C)(OC)C[C@@H](C)C2=NC[C@H](Cc3cscn3)N3C(=O)O[C@@]1(C)[C@H]3[C@H]2C [Example 69]	> 100	0.78 (≈ 1.06 µM)	0.2 (≈ 0.272 µM)	100 (≈ 136 µM)	50 (≈ 68 µM)	0.39 (≈ 0.531 µM)	> 100	> 100	> 100	> 100	50 (≈ 68 µM)	> 100	0.2 (≈ 0.272 µM)	> 100	0.2 (≈ 0.272 µM)	> 100	> 100	0.2 (≈ 0.272 µM)	> 100	0.39 (≈ 0.531 µM)	MIC (ESCHERICHIA COLI SS): 0.39 µg/mL (≈ 0.531 µM); MIC [16]: 0.2 µg/mL (≈ 0.272 µM); MIC [17]: 0.02 µg/mL (≈ 0.0272 µM); MIC [18]: > 100 µg/mL; MIC [19]: 3.1 µg/mL (≈ 4.22 µM); MIC [20]: > 100 µg/mL; MIC (M[…] ATCC 4698): 0.2 µg/mL (≈ 0.272 µM); MIC (STR[…] 508): 0.02 µg/mL (≈ 0.0272 µM); MIC (M[…] ATCC 9341): 0.05 µg/mL (≈ 0.068 µM); MIC (EN[…] ATCC 8043): 0.1 µg/mL (≈ 0.136 µM); MIC [21]: 0.01 µg/mL (≈ 0.0136 µM); MIC (CANDIDA ALBICANS CCH 442): > 100 µg/mL; MIC [22]: > 100 µg/mL
